Test results from patent publication US9462805B2, “Herbicide-resistant proteins, encoding genes, and uses thereof” (Beijing Dabeinong Technology Group Co., Ltd., priority 2012, dated 2016).

Key:
[1] = tested on: Arabidopsis T1 plants transformed with substituted 24DT02 nucleotide sequence; experiment: Herbicide resistance effect test of transgenic Arabidopsis T1 plants (24DT02-i); format: in vivo, Arabidopsis thaliana; conditions: number of T1 plants, genotype 24DT02-i, 560 g ae/ha sprayed; for Moderately resistant: curly rosette leaves 7 days after spraying; for Non-resistant: dead 14 days after spraying; for Highly resistant: growth consistent with blank solvent 7 days after spraying; for Lowly resistant: incapable of bolting 14 days after spraying
Protocol: (§1) On 7 days after planting (DAP) and 11 DAP respectively, the T1 plants (cotyledon stage and 2-4 leaves stage, respectively) were sprayed with 0.2% of Liberty herbicide solution (200 g ai/L glufosinate-ammonium) using DeVilbiss compressed air nozzle at a spraying volume of 10 ml/disc (703 L/ha) so as to provide effective amount of glufosinate-ammonium (280 g ai/ha) for each application. The survival plants (actively growing plants) were verified 4 to 7 days after the last spraying and transferred into the square pot (7 cm×7 cm) made from vermiculite and horses dung (3-5 plants per pot). The transplanted plants were covered with moisturizing mask for 3-4 days and placed in culture room at 22° C. or directly into the greenhouse as described above. Then the mask was removed and the plants were planted in greenhouse (22±5° C., 50±30% RH, 14 hours of lighting: 10 hours of darkness, minimum […] natural light+complement light) at least one day before testing the ability of 24DT02 to provide the resistance to phenoxy auxin herbicide.
(§2) 24DT02 gene was used to transform Arabidopsis for the first time. At first, T1 transformants were selected from the background of un-transformed seeds, using glufosinate-ammonium selection scheme. About 40000 T1 seeds were screened among which 195 strains of T1 generation positive transformants (PAT gene) were identified, i.e. the transformation efficiency was about 0.5%. Herbicide resistance effect tests to 2,4-D dimethyl ammonium salt and agroxone of Arabidopsis T1 plants transformed with 24DT02 nucleotide sequence, substituted 24DT02 nucleotide sequence, truncated 24DT02 nucleotide sequence, added 24DT02 nucleotide sequence, control nucleotide sequence respectively and wild-type Arabidopsis plants were performed after 18 days of planting.
(§3) Arabidopsis T1 plants transformed with 24DT02 nucleotide sequence, substituted 24DT02 nucleotide sequence, truncated 24DT02 nucleotide sequence, added 24DT02 nucleotide sequence and control nucleotide sequence respectively and wild-type Arabidopsis plants were sprayed with 2,4-D dimethyl ammonium salt (560 g ae/ha, 1-fold concentration in field), agroxone (560 g ae/ha, 1-fold concentration in field) and blank solvent (water). Resistance conditions of the plants were counted 7 days and 14 days after spraying. Plants with growth conditions consistent with blank solvent (water) 7 days after spaying were classified as highly resistant plants; Plants with curly rosette leaves 7 days after spaying were classified as moderately resistant plants; Plants incapable of bolting 14 days after spaying were classified as low-resistant plants and the dead plants 14 days after spaying were classified as non-resistant plants. Because each Arabidopsis T1 plant was an independent transformation event, significant differences of individual T1 responses were expected under a given dose.

[2] = tested on: Arabidopsis T1 plants transformed with truncated 24DT02 nucleotide sequence; experiment: Herbicide resistance effect test of transgenic Arabidopsis T1 plants (24DT02-t); format: in vivo, Arabidopsis thaliana; conditions: number of T1 plants, genotype 24DT02-t, 560 g ae/ha sprayed; for Moderately resistant: curly rosette leaves 7 days after spraying; for Non-resistant: dead 14 days after spraying; for Highly resistant: growth consistent with blank solvent 7 days after spraying; for Lowly resistant: incapable of bolting 14 days after spraying
Protocol: as §1, §2, §3

[3] = tested on: wild-type Arabidopsis plants; experiment: Herbicide resistance effect test of wild-type Arabidopsis plants; format: in vivo, Arabidopsis thaliana; conditions: number of plants, genotype Wild, 560 g ae/ha sprayed; for Moderately resistant: curly rosette leaves 7 days after spraying; for Non-resistant: dead 14 days after spraying; for Highly resistant: growth consistent with blank solvent 7 days after spraying; for Lowly resistant: incapable of bolting 14 days after spraying
Source text: 24DT02 gene was used to transform Arabidopsis for the first time. At first, T1 transformants were selected from the background of un-transformed seeds, using glufosinate-ammonium selection scheme. About 40000 T1 seeds were screened among which 195 strains of T1 generation positive transformants (PAT gene) were identified, i.e. the transformation efficiency was about 0.5%. Herbicide resistance effect tests to 2,4-D dimethyl ammonium salt and agroxone of Arabidopsis T1 plants transformed with 24DT02 nucleotide sequence, substituted 24DT02 nucleotide sequence, truncated 24DT02 nucleotide sequence, added 24DT02 nucleotide sequence, control nucleotide sequence respectively and wild-type Arabidopsis plants were performed after 18 days of planting. Arabidopsis T1 plants transformed with 24DT02 nucleotide sequence, substituted 24DT02 nucleotide sequence, truncated 24DT02 nucleotide sequence, added 24DT02 nucleotide sequence and control nucleotide sequence respectively and wild-type Arabidopsis plants were sprayed with 2,4-D dimethyl ammonium salt (560 g ae/ha, 1-fold concentration in field), agroxone (560 g ae/ha, 1-fold concentration in field) and blank solvent (water). Resistance conditions of the plants were counted 7 days and 14 days after spraying. Plants with growth conditions consistent with blank solvent (water) 7 days after spaying were classified as highly resistant plants; Plants with curly rosette leaves 7 days after spaying were classified as moderately resistant plants; Plants incapable of bolting 14 days after spaying were classified as low-resistant plants and the dead plants 14 days after spaying were classified as non-resistant plants. Because each Arabidopsis T1 plant was an independent transformation event, significant differences of individual T1 responses were expected under a given dose.

[4] = tested on: corn plants transfected with 24DT02 added nucleotide sequence; experiment: Herbicide-resistance effect test of transgenic corn plants (added 24DT02; strains S8, S9); format: in vivo, maize; conditions: 8960 g ae/ha sprayed, 21 days after spraying; for Abnormal development of prop roots / Normal development of prop roots: number of plants
Protocol: (§4) Herbicide resistance effects tests to 2,4-D dimethyl ammonium salt and agroxone of maize plants containing 24DT02 nucleotide sequence, 24DT02 substituted nucleotide sequence, 24DT02 truncated nucleotide sequence, 24DT02 added nucleotide sequence, control nucleotide sequence respectively and wild type maize plants (stages V3-V4) were performed respectively.
(§5) Maize plants containing 24DT02 nucleotide sequence, 24DT02 substituted nucleotide sequence, 24DT02 truncated nucleotide sequence, 24DT02 added nucleotide sequence, control nucleotide sequence respectively and wild type maize plants were taken and spayed with 2,4-D dimethyl ammonium salt (8960 g ae/ha, 16-folds concentration in field), agroxone (8960 g ae/ha, 16-folds concentration in field) and blank solvent (water) respectively. Prop root development was counted 21 days after spaying. Three strains (S1, S2, and S3) of corn plants transfected with 24DT02 nucleotide sequence, two strains (S4 and S5) of corn plants transfected with 24DT02 substituted nucleotide sequence, two strains (S6 and S7) of corn plants transfected with 24DT02 truncated nucleotide sequence, two strains (S8 and S9) of corn plants transfected with 24DT02 added nucleotide sequence, two strains (S10 and S11) of corn plants transfected with control nucleotide sequence and 1 strain of wild type (CK) corn were selected and 10-15 plants from each stain were tested.

[5] = tested on: corn plants transfected with control nucleotide sequence; experiment: Herbicide-resistance effect test of corn plants (control sequence; strains S10, S11); format: in vivo, maize; conditions: 8960 g ae/ha sprayed, 21 days after spraying; for Abnormal development of prop roots / Normal development of prop roots: number of plants
Protocol: as §4, §5

[6] = corn strain S10 (control sequence)
[7] = corn strain S11 (control sequence)

Cc1cc(Cl)ccc1OCC(=O)O [agroxone]
Moderately resistant [1]: 5 | Non-resistant [1]: 6 | Highly resistant [1]: 9 | Lowly resistant [1]: 1 | Moderately resistant [2]: 4 | Non-resistant [2]: 4 | Highly resistant [2]: 8 | Lowly resistant [2]: 2 | Moderately resistant [3]: 0 | Non-resistant [3]: 16 | Highly resistant [3]: 0 | Lowly resistant [3]: 0 | Ratio of the normally developed prop roots ([4]; corn strain S8 (added 24DT02)): 86.67% | Ratio of the normally developed prop roots ([4]; corn strain S9 (added 24DT02)): 84.62% | Abnormal development of prop roots ([4]; corn strain S8 (added 24DT02)): 2 | Normal development of prop roots ([4]; corn strain S8 (added 24DT02)): 13 | Abnormal development of prop roots ([4]; corn strain S9 (added 24DT02)): 2 | Normal development of prop roots ([4]; corn strain S9 (added 24DT02)): 11 | Ratio of the normally developed prop roots [5, 6]: 0% | Ratio of the normally developed prop roots [5, 7]: 0% | Abnormal development of prop roots [5, 6]: 10 | Normal development of prop roots [5, 6]: 0 | Abnormal development of prop roots [5, 7]: 10 | Normal development of prop roots [5, 7]: 0

CNC.O=C(O)COc1ccc(Cl)cc1Cl [2,4-D dimethyl ammonium salt]
Moderately resistant [1]: 4 | Non-resistant [1]: 4 | Highly resistant [1]: 8 | Lowly resistant [1]: 1 | Moderately resistant [2]: 5 | Non-resistant [2]: 4 | Highly resistant [2]: 7 | Lowly resistant [2]: 0 | Moderately resistant [3]: 0 | Non-resistant [3]: 20 | Highly resistant [3]: 0 | Lowly resistant [3]: 0 | Ratio of the normally developed prop roots ([4]; corn strain S8 (added 24DT02)): 80.00% | Ratio of the normally developed prop roots ([4]; corn strain S9 (added 24DT02)): 78.57% | Abnormal development of prop roots ([4]; corn strain S8 (added 24DT02)): 3 | Normal development of prop roots ([4]; corn strain S8 (added 24DT02)): 12 | Abnormal development of prop roots ([4]; corn strain S9 (added 24DT02)): 3 | Normal development of prop roots ([4]; corn strain S9 (added 24DT02)): 11 | Ratio of the normally developed prop roots [5, 6]: 0% | Ratio of the normally developed prop roots [5, 7]: 0% | Abnormal development of prop roots [5, 6]: 10 | Normal development of prop roots [5, 6]: 0 | Abnormal development of prop roots [5, 7]: 11 | Normal development of prop roots [5, 7]: 0
